Assay results reported in patent publication US9487749B2 (priority 2009, dated 2016).
“And” between values parts separate entries of the source, which are not always exact repeats. Identical values can stand only once.

How the values were obtained:
[1] = system: Lactobacillus acidophilus; assay: Lactobacillus acidophilus milk growth in simulated gastric acid supplemented with MSM; type: cell-based; details: for Log Growth of L. acidophilus in milk average / Log Growth of L. acidophilus in milk in duplicate: simulated gastric acid pH 1.2
Chlorella minutissima = assay: Algal growth with MSM by percent transmittance; type: cell-based
Procedure: Two species of Chlorella were examined for growth—Chlorella sorokiniana a freshwater species and Chlorella minutissima a marine species. […] Growth was measured on day 0, 1, 2, 3, 4, 5, 6, 7, 8, 9 and 10. […] The following media were purchased from UTEX Culture Collection of Algae: Enriched Salt Water Medium and Volvox Dextrose Medium.
The algae were grown for 48 hours in the appropriate medium. The initial suspension was enumerated for each alga and is referred to as the starting inoculums. Chlorella sorokiniana was at 381 million cells per milliliter and Chlorella minutissima was at 19 million cells per milliliter. One milliliter of the algal solution was placed into 9 mLs of medium and mixed by vortexing. […] The tube of algae and MSM were incubated at room temperature with exposure to sunlight. […] Each dilution of MSM for each organism was set up in and analyzed in triplicate for each time interval measured. The samples were measured by percent transmittance on a UV/VIS spectrophotometer at wavelength 750 nm. The medium stock was tested for percent transmittance background levels at every time interval were measured. The lower percent transmittance indicated a higher growth factor.

CS(C)(=O)=O [MSM, Methylsulfonylmethane]
Log Growth of L. acidophilus in milk average ([1]; 5% MSM, hour 24): 1.66 log | Log Growth of L. acidophilus in milk in duplicate ([1]; 5% MSM, hour 48): 1.22 log and 1.43 log | Log Growth of L. acidophilus in milk average ([1]; 5% MSM, hour 48): 1.33 log | log growth higher than control ([1]; 5.0% MSM, listed as order: hour 15, maximum vs control maximum): 0.45 logs and 0.68 logs | increase in log growth from previous time point ([1]; […] MSM (so in the source), 24 hours): 0.30 logs | decrease in log growth from previous time point ([1]; […] MSM, 24 hours): 0.11 logs | decrease in log growth from previous time point ([1]; […] MSM, Hour 48): 0.38 logs | Log Growth of L. acidophilus in milk in duplicate ([1]; […] MSM, hour 0): 0 log | Log Growth of L. acidophilus in milk average ([1]; […] MSM, hour 0): 0 log | Log Growth of L. acidophilus in milk average ([1]; […] MSM, hour 9): 0.41 log | increase in logs from hour 15 to 24 ([1]; […] and 5.0% MSM): ≥ 0.24 logs | percent transmittance (Chlorella minutissima; MSM Percentage 0.5, day 0, 750 nm): 93.5% | percent transmittance (Chlorella minutissima; MSM Percentage 0.5, day 1, 750 nm): 70.1% | percent transmittance (Chlorella minutissima; MSM Percentage 0.5, day 2, 750 nm): 45.4% | percent transmittance (Chlorella minutissima; MSM Percentage 0.5, day 3, 750 nm): 32.1% | percent transmittance (Chlorella minutissima; MSM Percentage 0.5, day 4, 750 nm): 27.6% | percent transmittance (Chlorella minutissima; MSM Percentage 0.5, day 5, 750 nm): 26.6% | percent transmittance (Chlorella minutissima; MSM Percentage 0.5, day 6, 750 nm): 25.1% | percent transmittance (Chlorella minutissima; MSM Percentage 0.5, day 7, 750 nm): 23.6% | percent transmittance (Chlorella minutissima; MSM Percentage 0.5, day 8, 750 nm): 22.8% | percent transmittance (Chlorella minutissima; MSM Percentage 0.5, day 9, 750 nm): 20.4% | percent transmittance (Chlorella minutissima; MSM Percentage 0.5, day 10, 750 nm): 18.9% | percent transmittance (Chlorella minutissima; MSM Percentage 1.0, day 0, 750 nm): 91.1% | percent transmittance (Chlorella minutissima; MSM Percentage 1.0, day 1, 750 nm): 80.5% | percent transmittance (Chlorella minutissima; MSM Percentage 1.0, day 2, 750 nm): 40.0% | percent transmittance (Chlorella minutissima; MSM Percentage 1.0, day 3, 750 nm): 31.0% | percent transmittance (Chlorella minutissima; MSM Percentage 1.0, day 4, 750 nm): 27.9% | percent transmittance (Chlorella minutissima; MSM Percentage 1.0, day 5, 750 nm): 26.5% | percent transmittance (Chlorella minutissima; MSM Percentage 1.0, day 6, 750 nm): 25.4% | percent transmittance (Chlorella minutissima; MSM Percentage 1.0, day 7, 750 nm): 24.4% | percent transmittance (Chlorella minutissima; MSM Percentage 1.0, day 8, 750 nm): 23.7% | percent transmittance (Chlorella minutissima; MSM Percentage 1.0, day 9, 750 nm): 21.0% | percent transmittance (Chlorella minutissima; MSM Percentage 1.0, day 10, 750 nm): 19.4% | percent transmittance (Chlorella minutissima; MSM Percentage 2.5, day 0, 750 nm): 82.8% | percent transmittance (Chlorella minutissima; MSM Percentage 2.5, day 1, 750 nm): 75.1% | percent transmittance (Chlorella minutissima; MSM Percentage 2.5, day 2, 750 nm): 59.5% | percent transmittance (Chlorella minutissima; MSM Percentage 2.5, day 3, 750 nm): 45.4% | percent transmittance (Chlorella minutissima; MSM Percentage 2.5, day 4, 750 nm): 33.6% | percent transmittance (Chlorella minutissima; MSM Percentage 2.5, day 5, 750 nm): 32.4% | percent transmittance (Chlorella minutissima; MSM Percentage 2.5, day 6, 750 nm): 30.0% | percent transmittance (Chlorella minutissima; MSM Percentage 2.5, day 7, 750 nm): 28.6% | percent transmittance (Chlorella minutissima; MSM Percentage 2.5, day 8, 750 nm): 27.7% | percent transmittance (Chlorella minutissima; MSM Percentage 2.5, day 9, 750 nm): 23.3% | percent transmittance (Chlorella minutissima; MSM Percentage 2.5, day 10, 750 nm): 21.1% | percent transmittance (Chlorella minutissima; MSM Percentage 5.0, day 0, 750 nm): 68.9% | percent transmittance (Chlorella minutissima; MSM Percentage 5.0, day 1, 750 nm): 87.4% | percent transmittance (Chlorella minutissima; MSM Percentage 5.0, day 2, 750 nm): 76.5% | percent transmittance (Chlorella minutissima; MSM Percentage 5.0, day 3, 750 nm): 62.0% | percent transmittance (Chlorella minutissima; MSM Percentage 5.0, day 4, 750 nm): 52.9% | percent transmittance (Chlorella minutissima; MSM Percentage 5.0, day 5, 750 nm): 52.2% | percent transmittance (Chlorella minutissima; MSM Percentage 5.0, day 6, 750 nm): 50.7% | percent transmittance (Chlorella minutissima; MSM Percentage 5.0, day 7, 750 nm): 51.0% | percent transmittance (Chlorella minutissima; MSM Percentage 5.0, day 8, 750 nm): 51.9% | percent transmittance (Chlorella minutissima; MSM Percentage 5.0, day 9, 750 nm): 47.1% | percent transmittance (Chlorella minutissima; MSM Percentage 5.0, day 10, 750 nm): 44.1% | percent transmittance (Chlorella minutissima; MSM Percentage 10.0, day 0, 750 nm): 49.6% | percent transmittance (Chlorella minutissima; MSM Percentage 10.0, day 1, 750 nm): 49.2% | percent transmittance (Chlorella minutissima; MSM Percentage 10.0, day 2, 750 nm): 50.8% | percent transmittance (Chlorella minutissima; MSM Percentage 10.0, day 3, 750 nm): 51.9% | percent transmittance (Chlorella minutissima; MSM Percentage 10.0, day 4, 750 nm): 52.0% | percent transmittance (Chlorella minutissima; MSM Percentage 10.0, day 5, 750 nm): 51.9% | percent transmittance (Chlorella minutissima; MSM Percentage 10.0, day 6, 750 nm): 54.9% | percent transmittance (Chlorella minutissima; MSM Percentage 10.0, day 7, 750 nm): 56.1% | percent transmittance (Chlorella minutissima; MSM Percentage 10.0, day 8, 750 nm): 58.6% | percent transmittance (Chlorella minutissima; MSM Percentage 10.0, day 9, 750 nm): 41.4% | percent transmittance (Chlorella minutissima; MSM Percentage 10.0, day 10, 750 nm): 36.7% | percent transmittance (Chlorella minutissima; MSM Percentage 20.0, day 0, 750 nm): 30.0% | percent transmittance (Chlorella minutissima; MSM Percentage 20.0, day 1, 750 nm): 33.8% | percent transmittance (Chlorella minutissima; MSM Percentage 20.0, day 2, 750 nm): 51.1% | percent transmittance (Chlorella minutissima; MSM Percentage 20.0, day 3, 750 nm): 54.8% | percent transmittance (Chlorella minutissima; MSM Percentage 20.0, day 4, 750 nm): 57.3% | percent transmittance (Chlorella minutissima; MSM Percentage 20.0, day 5, 750 nm): 57.5% | percent transmittance (Chlorella minutissima; MSM Percentage 20.0, day 6, 750 nm): 57.4% | percent transmittance (Chlorella minutissima; MSM Percentage 20.0, day 7, 750 nm): 57.1% | percent transmittance (Chlorella minutissima; MSM Percentage 20.0, day 8, 750 nm): 55.8% | percent transmittance (Chlorella minutissima; MSM Percentage 20.0, day 9, 750 nm): 45.1% | percent transmittance (Chlorella minutissima; MSM Percentage 20.0, day 10, 750 nm): 30.2%
